Marks after values point to notes of the source that are not given here.
Assay type: in vivo
Details: rat, PY 4 mg/kg oral; for Total amount in brain (tissue weight): whole brain; for Total amount in cecum (tissue weight): whole cecum; for Total amount in colon (tissue weight): whole colon; for Total amount in heart (tissue weight): whole heart; for Total amount in ileum (tissue weight): whole ileum; for Total amount in kidney (tissue weight): whole kidney; for Total amount in liver (tissue weight): whole liver; for Total amount in lung (tissue weight): whole lung; for Total amount in spleen (tissue weight): whole spleen; for Total amount in stomach (tissue weight): whole stomach; for Total amount in testes (tissue weight): whole testes; for Total amount in tongue (tissue weight): whole tongue; for Total amount in feces: 24 hr feces collection; for Total amount in duodenum (tissue weight): whole duodenum; for Total amount in jejunum (tissue weight): whole jejunum
[1] = 24 hr urine collection, mean ± SD, unit ppb printed
[2] = 24 hr, wet-g, mean ± SD, unit ppb printed
[3] = 24 hr, mean ± SD, unit ppb printed

SMILES	Concentration in urine [1]	Concentration in cecum [2]	Concentration in colon [2]	Concentration in heart [2]	Concentration in ileum [2]	Concentration in jejunum [2]	Concentration in kidney [2]	Concentration in liver [2]	Concentration in lung [2]	Concentration in plasma [3]	Total amount in cecum (tissue weight) (24 hr, mean ± SD)	Total amount in colon (tissue weight) (24 hr, mean ± SD)	Total amount in heart (tissue weight) (24 hr, mean ± SD)	Total amount in ileum (tissue weight) (24 hr, mean ± SD)	Total amount in kidney (tissue weight) (24 hr, mean ± SD)	Total amount in liver (tissue weight) (24 hr, mean ± SD)	Total amount in lung (tissue weight) (24 hr, mean ± SD)	Total amount in stomach (tissue weight) (24 hr, mean ± SD)	Total amount in testes (tissue weight) (24 hr, mean ± SD)	Total amount in jejunum (tissue weight) (24 hr, mean ± SD)	other results
O=C(O)[C@H]1O[C@@H](Oc2ccc3ccc4cccc5ccc2c3c45)[C@H](O)[C@@H](O)[C@@H]1O [PYOG, Pyrene-1-glucuronide]	10.1 × 10^3 ± 400^c,d ppb	1.4 × 10^3 ± 100^d ppb	1.2 × 10^3 ± 300^d ppb	1.1 × 10^3 ± 200^d ppb	170.1 × 10^3 ± 700^a ppb	87.1 × 10^3 ± 400^b ppb	20.6 × 10^3 ± 100^c,d ppb	10.2 × 10^3 ± 300^c,d ppb	2.4 × 10^3 ± 900^c,d ppb	446.0 ± 30^d ppb	(950 ± 70) ng	(1.0 × 10^3 ± 200) ng	(860 ± 140) ng	(58 × 10^3 ± 300) ng	(18 × 10^3 ± 880) ng	(70 × 10^3 ± 220) ng	(1.7 × 10^3 ± 640) ng	(1.7 × 10^3 ± 100) ng	(1.1 × 10^3 ± 390) ng	–	Share of PY excreted via urine as PYOG (24 hr urine): around 10%; Concentration in brain (24 hr, brain, wet-g, mean ± SD, unit ppb printed): 210 ± 60^d ppb; Concentration in duodenum (24 hr, duodenum, wet-g, mean ± SD, unit ppb printed): 65.9 × 10^3 ± 800^b,c ppb; Concentration in spleen (24 hr, spleen, wet-g, mean ± SD, unit ppb printed): 790 ± 20^d ppb; Concentration in stomach [2]: 1.7 × 10^3 ± 10^d ppb; Concentration in testes [2]: 1.0 × 10^3 ± 360^d ppb; Concentration in tongue (24 hr, tongue, wet-g, mean ± SD, unit ppb printed): 1.4 × 10^3 ± 500^d ppb; Total amount in brain (tissue weight) (24 hr, mean ± SD): (310 ± 100) ng; Total amount in spleen (tissue weight) (24 hr, mean ± SD): (380 ± 120) ng; Total amount in tongue (tissue weight) (24 hr, mean ± SD): (420 ± 110) ng
Oc1ccc2ccc3cccc4ccc1c2c34 [PYOH, 1-hydroxypyrene]	546 ± 78^b ppb	59.4 × 10^3 ± 800^a,b ppb	13 × 10^3 ± 800^b ppb	–	–	–	–	–	–	–	(40.1 × 10^3 ± 100) ng	(11.4 × 10^3 ± 700) ng	–	(4.1 × 10^3 ± 400) ng	(135 ± 19) ng	(8.5 × 10^3 ± 100) ng	–	(871 ± 64) ng	(92 ± 37) ng	(1.6 × 10^3 ± 200) ng	Share of PY excreted via feces as PYOH (24 hr feces): ~70%; Total amount in feces (mean ± SD): (755.8 × 10^3 ± 700) ng; Total amount in duodenum (tissue weight) (24 hr, mean ± SD): (441 ± 29) ng
O=S(=O)(O)Oc1ccc2ccc3cccc4ccc1c2c34 [PYOS, Pyrene-1-sulfate]	13 ± 7^b ppb	89 ± 58^a,b ppb	54 ± 20^b ppb	12 ± 4^b ppb	261 ± 21^a ppb	39 ± 17^b ppb	76 ± 38^a,b ppb	96 ± 38^a,b ppb	38 ± 13^b ppb	2 ± 1^b ppb	(57 ± 35) ng	(47 ± 16) ng	(9 ± 3) ng	(96 ± 10) ng	(67 ± 33) ng	(650 ± 260) ng	(29 ± 9) ng	(11 ± 1) ng	(12 ± 3) ng	(48 ± 21) ng	Concentration in stomach [2]: 11 ± 1^b ppb; Concentration in testes [2]: 11 ± 3^b ppb
c1cc2ccc3cccc4ccc(c1)c2c34 [PY, Pyrene]	4.3 ± 0.0^d,e ppb	–	–	–	–	–	–	–	–	–	(33.0 ± 4.8) ng	(32.0 ± 7.7) ng	(12.7 ± 1.5) ng	(22.0 ± 1.7) ng	(12.1 ± 2.0) ng	(124.5 ± 20.4) ng	(10.7 ± 0.2) ng	(22.4 ± 4.1) ng	(13.3 ± 3.7) ng	(34.5 ± 14.8) ng	Total amount in feces (mean ± SD): (380.9 ± 31.2) ng; Total amount in urine (24 hr urine collection, mean ± SD): (40.7 ± 9.6) ng; Total amount in brain (tissue weight) (24 hr, mean ± SD): (17.5 ± 1.5) ng; Total amount in duodenum (tissue weight) (24 hr, mean ± SD): (19.4 ± 5.3) ng; Total amount in spleen (tissue weight) (24 hr, mean ± SD): (12.4 ± 0.8) ng; Total amount in tongue (tissue weight) (24 hr, mean ± SD): (11.4 ± 0.4) ng
